{"source": "patent US20040102622A1", "about": "“Modulation of hepatocyte growth factor receptor expression” (Isis Pharmaceuticals Inc., priority 2002, published 2004)"}
{"tested_on": "human hepatocyte growth factor receptor mRNA"}
{"substance": "ISIS 155124: 2′-MOE gapmer, phosphorothioate backbone, sequence tatgatgtctcccagaagga (antisense TATGATGTCTCCCAGAAGGA; all phosphorothioate, sugars by position and methylation of C not given here; 2'-MOE gapmer)", "inhibition of human hepatocyte growth factor receptor expression": "at least 35%"}
{"substance": "ISIS 209541: 2′-MOE gapmer, phosphorothioate backbone, sequence accaagtactgtaagagagg (antisense ACCAAGTACTGTAAGAGAGG; all phosphorothioate, sugars by position and methylation of C not given here; 2'-MOE gapmer)", "inhibition of human hepatocyte growth factor receptor expression": "at least 35%"}
{"substance": "ISIS 209522: 2′-MOE gapmer, phosphorothioate backbone, sequence agaggtttatctttcggtgc (antisense AGAGGTTTATCTTTCGGTGC; all phosphorothioate, sugars by position and methylation of C not given here; 2'-MOE gapmer)", "inhibition of human hepatocyte growth factor receptor expression": "at least 35%"}
{"substance": "ISIS 209528: 2′-MOE gapmer, phosphorothioate backbone, sequence ttgggaaaaccttgtagatt (antisense TTGGGAAAACCTTGTAGATT; all phosphorothioate, sugars by position and methylation of C not given here; 2'-MOE gapmer)", "inhibition of human hepatocyte growth factor receptor expression": "at least 35%"}
{"substance": "ISIS 155116: 2′-MOE gapmer, phosphorothioate backbone, sequence aaatctttcatgatgattcc (antisense AAATCTTTCATGATGATTCC; all phosphorothioate, sugars by position and methylation of C not given here; 2'-MOE gapmer)", "inhibition of human hepatocyte growth factor receptor expression": "at least 35%"}
{"substance": "ISIS 209521: 2′-MOE gapmer, phosphorothioate backbone, sequence ggaaccagtggagaagtcag (antisense GGAACCAGTGGAGAAGTCAG; all phosphorothioate, sugars by position and methylation of C not given here; 2'-MOE gapmer)", "inhibition of human hepatocyte growth factor receptor expression": "at least 35%"}
{"substance": "ISIS 209525: 2′-MOE gapmer, phosphorothioate backbone, sequence ctggtccgtcaaaaacataa (antisense CTGGTCCGTCAAAAACATAA; all phosphorothioate, sugars by position and methylation of C not given here; 2'-MOE gapmer)", "inhibition of human hepatocyte growth factor receptor expression": "at least 35%"}
{"substance": "ISIS 155118: 2′-MOE gapmer, phosphorothioate backbone, sequence catccagcatacagtttctt (antisense CATCCAGCATACAGTTTCTT; all phosphorothioate, sugars by position and methylation of C not given here; 2'-MOE gapmer)", "inhibition of human hepatocyte growth factor receptor expression": "at least 35%"}
{"substance": "ISIS 155125: 2′-MOE gapmer, phosphorothioate backbone, sequence ggaaactgatcttctggaaa (antisense GGAAACTGATCTTCTGGAAA; all phosphorothioate, sugars by position and methylation of C not given here; 2'-MOE gapmer)", "inhibition of human hepatocyte growth factor receptor expression": "at least 35%"}
{"substance": "ISIS 209544: 2′-MOE gapmer, phosphorothioate backbone, sequence taatagtgcaattttggcaa (antisense TAATAGTGCAATTTTGGCAA; all phosphorothioate, sugars by position and methylation of C not given here; 2'-MOE gapmer)", "inhibition of human hepatocyte growth factor receptor expression": "at least 35%"}
{"substance": "ISIS 209548: 2′-MOE gapmer, phosphorothioate backbone, sequence tcaagaagccctcaatattt (antisense TCAAGAAGCCCTCAATATTT; all phosphorothioate, sugars by position and methylation of C not given here; 2'-MOE gapmer)", "inhibition of human hepatocyte growth factor receptor expression": "at least 35%"}
{"substance": "ISIS 209526: 2′-MOE gapmer, phosphorothioate backbone, sequence ttgatagggaatgcacacat (antisense TTGATAGGGAATGCACACAT; all phosphorothioate, sugars by position and methylation of C not given here; 2'-MOE gapmer)", "inhibition of human hepatocyte growth factor receptor expression": "at least 35%"}
{"substance": "ISIS 155111: 2′-MOE gapmer, phosphorothioate backbone, sequence gttcggcagaatctggcttg (antisense GTTCGGCAGAATCTGGCTTG; all phosphorothioate, sugars by position and methylation of C not given here; 2'-MOE gapmer)", "inhibition of human hepatocyte growth factor receptor expression": "at least 35%"}
{"substance": "ISIS 209550: 2′-MOE gapmer, phosphorothioate backbone, sequence tgcgcgctgtagtcccagct (antisense TGCGCGCTGTAGTCCCAGCT; all phosphorothioate, sugars by position and methylation of C not given here; 2'-MOE gapmer)", "inhibition of human hepatocyte growth factor receptor expression": "at least 35%"}
{"substance": "ISIS 155119: 2′-MOE gapmer, phosphorothioate backbone, sequence aagtatattaaacacttcct (antisense AAGTATATTAAACACTTCCT; all phosphorothioate, sugars by position and methylation of C not given here; 2'-MOE gapmer)", "inhibition of human hepatocyte growth factor receptor expression": "at least 35%"}
{"substance": "ISIS 155098: 2′-MOE gapmer, phosphorothioate backbone, sequence tcagaagtgtcctattaaag (antisense TCAGAAGTGTCCTATTAAAG; all phosphorothioate, sugars by position and methylation of C not given here; 2'-MOE gapmer)", "inhibition of human hepatocyte growth factor receptor expression": "at least 35%"}
{"substance": "ISIS 209540: 2′-MOE gapmer, phosphorothioate backbone, sequence cacatcccttgtaagttgga (antisense CACATCCCTTGTAAGTTGGA; all phosphorothioate, sugars by position and methylation of C not given here; 2'-MOE gapmer)", "inhibition of human hepatocyte growth factor receptor expression": "at least 35%"}
{"substance": "ISIS 209543: 2′-MOE gapmer, phosphorothioate backbone, sequence gatgccaccgtgcactgtgc (antisense GATGCCACCGTGCACTGTGC; all phosphorothioate, sugars by position and methylation of C not given here; 2'-MOE gapmer)", "inhibition of human hepatocyte growth factor receptor expression": "at least 35%"}
{"substance": "ISIS 155099: 2′-MOE gapmer, phosphorothioate backbone, sequence caggtttttcccaacacctg (antisense CAGGTTTTTCCCAACACCTG; all phosphorothioate, sugars by position and methylation of C not given here; 2'-MOE gapmer)", "inhibition of human hepatocyte growth factor receptor expression": "at least 35%"}
{"substance": "ISIS 209533: 2′-MOE gapmer, phosphorothioate backbone, sequence caccactggcaaagcaaaat (antisense CACCACTGGCAAAGCAAAAT; all phosphorothioate, sugars by position and methylation of C not given here; 2'-MOE gapmer)", "inhibition of human hepatocyte growth factor receptor expression": "at least 35%"}
{"substance": "ISIS 155104: 2′-MOE gapmer, phosphorothioate backbone, sequence atgcaatggatgatctggga (antisense ATGCAATGGATGATCTGGGA; all phosphorothioate, sugars by position and methylation of C not given here; 2'-MOE gapmer)", "inhibition of human hepatocyte growth factor receptor expression": "at least 35%"}
{"substance": "ISIS 209523: 2′-MOE gapmer, phosphorothioate backbone, sequence gggccttcattatgagaggt (antisense GGGCCTTCATTATGAGAGGT; all phosphorothioate, sugars by position and methylation of C not given here; 2'-MOE gapmer)", "inhibition of human hepatocyte growth factor receptor expression": "at least 35%"}
{"substance": "ISIS 209529: 2′-MOE gapmer, phosphorothioate backbone, sequence cccagccacatatggtcagc (antisense CCCAGCCACATATGGTCAGC; all phosphorothioate, sugars by position and methylation of C not given here; 2'-MOE gapmer)", "inhibition of human hepatocyte growth factor receptor expression": "at least 35%"}
{"substance": "ISIS 155117: 2′-MOE gapmer, phosphorothioate backbone, sequence gtagattgcaggcagacaga (antisense GTAGATTGCAGGCAGACAGA; all phosphorothioate, sugars by position and methylation of C not given here; 2'-MOE gapmer)", "inhibition of human hepatocyte growth factor receptor expression": "at least 35%"}
{"substance": "ISIS 155128: 2′-MOE gapmer, phosphorothioate backbone, sequence actgtgaatttttcatccag (antisense ACTGTGAATTTTTCATCCAG; all phosphorothioate, sugars by position and methylation of C not given here; 2'-MOE gapmer)", "inhibition of human hepatocyte growth factor receptor expression": "at least 35%"}
{"substance": "ISIS 155133: 2′-MOE gapmer, phosphorothioate backbone, sequence aaaccatttctgtagttggg (antisense AAACCATTTCTGTAGTTGGG; all phosphorothioate, sugars by position and methylation of C not given here; 2'-MOE gapmer)", "inhibition of human hepatocyte growth factor receptor expression": "at least 35%"}
{"substance": "ISIS 155127: 2′-MOE gapmer, phosphorothioate backbone, sequence gatctggttgaactattact (antisense GATCTGGTTGAACTATTACT; all phosphorothioate, sugars by position and methylation of C not given here; 2'-MOE gapmer)", "inhibition of human hepatocyte growth factor receptor expression": "at least 35%"}
